Laboratory results: US20080075788A1, “DIAMMONIUM PHOSPHATE AND OTHER AMMONIUM SALTS AND THEIR USE IN PREVENTING CLOTTING” (priority 2006, published 2008)
Like-named read-outs stand apart in the source and are kept apart here.

Assays:
human plasma = conditions: for effect on the clotting time of human plasma: APTT test; for APTT Average: average of subjects
Procedure: (§1) Coagulation time of fresh whole blood can be determined with the Lee-White test by visually observing clot formation. Activation of the intrinsic coagulation pathway can be determined by measuring the activated partial thromboplastin time (APTT) as for example, shown in the FIGURE. In this test, the time to formation of a fibrin clot in re-calcified citrated plasma is measured using a coagulation analyzer instrument.
Clotting times of plasma samples were measured using the Amelung KC 4 A™ micro coagulation analyzer (Sigma Diagnostics, Germany). A cuvette was placed into a rotating well of the analyzer and a small stainless steel ball was dispensed into the cuvette. 100 μL of Pathromtin SL reagent were dispensed into the cuvette and then 100 μL of human plasma were added. For trials with the solution, 10 μL of water or of a solution dilution were added. After 2 minutes of incubation, 100 μL of CaCl2 were dispensed into each cuvette. The analyzer timer was started immediately and clotting time was recorded when the timer stopped.
On each day, control plasma N (normal) and control plasma P (abnormal/prolonged) were tested for quality control. At least two identical samples (duplicates) were tested simultaneously for each trial. The means and percent differences between duplicates were calculated. If the difference between duplicates was twenty percent or less, that trial's data was used for further analysis.

whole sheep blood = conditions: liquid component added to blood, versus control
Procedure: as §1

[1] = listed as diammonium phosphate solution

Structure (SMILES): N.N.O=P(O)(O)O [Sample A liquid, diammonium hydrogen-phosphate]
- effect on the clotting time of human plasma (human plasma; listed as diammonium hydrogen-phosphate solution): prolongs the clotting time of human plasma
- effect on the clotting time of human plasma (human plasma; [1]): delay and/or prevent clotting
- APTT Average (human plasma; NH4 Conc. 10 mM in the 310 μL total volume): 42.7 s
- Subject APTT (human plasma; NH4 Conc. 10 mM in the 310 μL total volume, subject 1): 49.8 s
- Subject APTT (human plasma; NH4 Conc. 10 mM in the 310 μL total volume, subject 2): 36.5 s
- Subject APTT (human plasma; NH4 Conc. 10 mM in the 310 μL total volume, subject 3): 42.6 s
- Subject APTT (human plasma; NH4 Conc. 10 mM in the 310 μL total volume, subject 4): 42.9 s
- Subject APTT (human plasma; NH4 Conc. 10 mM in the 310 μL total volume, subject 5): 47.9 s
- Subject APTT (human plasma; NH4 Conc. 10 mM in the 310 μL total volume, subject 6): 39.0 s
- Subject APTT (human plasma; NH4 Conc. 10 mM in the 310 μL total volume, subject 7): 32.5 s
- Subject APTT (human plasma; NH4 Conc. 10 mM in the 310 μL total volume, subject 8): 50.9 s
- APTT Average (human plasma; NH4 Conc. 20 mM in the 310 μL total volume): 50.8 s
- Subject APTT (human plasma; NH4 Conc. 20 mM in the 310 μL total volume, subject 1): 64.5 s
- Subject APTT (human plasma; NH4 Conc. 20 mM in the 310 μL total volume, subject 2): 46.3 s
- Subject APTT (human plasma; NH4 Conc. 20 mM in the 310 μL total volume, subject 4): 47.3 s
- Subject APTT (human plasma; NH4 Conc. 20 mM in the 310 μL total volume, subject 5): 62.2 s
- Subject APTT (human plasma; NH4 Conc. 20 mM in the 310 μL total volume, subject 6): 38.0 s
- Subject APTT (human plasma; NH4 Conc. 20 mM in the 310 μL total volume, subject 7): 37.7 s
- Subject APTT (human plasma; NH4 Conc. 20 mM in the 310 μL total volume, subject 8): 59.7 s
- APTT Average (human plasma; NH4 Conc. 30 mM in the 310 μL total volume): 67.6 s
- Subject APTT (human plasma; NH4 Conc. 30 mM in the 310 μL total volume, subject 1): 79.8 s
- Subject APTT (human plasma; NH4 Conc. 30 mM in the 310 μL total volume, subject 2): 52.8 s
- Subject APTT (human plasma; NH4 Conc. 30 mM in the 310 μL total volume, subject 3): 64.2 s
- Subject APTT (human plasma; NH4 Conc. 30 mM in the 310 μL total volume, subject 4): 64.6 s
- Subject APTT (human plasma; NH4 Conc. 30 mM in the 310 μL total volume, subject 5): 86.9 s
- Subject APTT (human plasma; NH4 Conc. 30 mM in the 310 μL total volume, subject 6): 58.5 s
- Subject APTT (human plasma; NH4 Conc. 30 mM in the 310 μL total volume, subject 7): 57.5 s
- Subject APTT (human plasma; NH4 Conc. 30 mM in the 310 μL total volume, subject 8): 76.4 s
- APTT Average (human plasma; NH4 Conc. 40 mM in the 310 μL total volume): 185.2 s
- Subject APTT (human plasma; NH4 Conc. 40 mM in the 310 μL total volume, subject 1): 236.5 s
- Subject APTT (human plasma; NH4 Conc. 40 mM in the 310 μL total volume, subject 4): 154.4 s
- Subject APTT (human plasma; NH4 Conc. 40 mM in the 310 μL total volume, subject 5): 186.2 s
- Subject APTT (human plasma; NH4 Conc. 40 mM in the 310 μL total volume, subject 6): 111.9 s
- Subject APTT (human plasma; NH4 Conc. 40 mM in the 310 μL total volume, subject 7): 166.2 s
- Subject APTT (human plasma; NH4 Conc. 40 mM in the 310 μL total volume, subject 8): 255.8 s
- effect on the Lee-White clotting time of whole sheep blood (whole sheep blood; listed as Sample A liquid component): prolonged
- effect on the Lee-White clotting time of whole sheep blood (whole sheep blood; [1]): delay and/or prevent clotting
- effect on clotting in whole human blood (whole human blood): delay and/or prevent clotting
